# Experimental data reported in ChEMBL document CHEMBL4138123, “Design, synthesis and biological evaluation of novel pyrazolochalcones as potential modulators of PI3K/Akt/mTOR pathway and inducers of apoptosis in breast cancer cells” (Eur J Med Chem, 2017).
# Assays:
# Assay type in all cases: functional
# Hs-578T = assay: Cytotoxicity against human Hs 578T cells assessed as growth inhibition after 48 hrs by sulforhodamine B assay
# UO-31 [1] = assay: Cytotoxicity against human UO31 cells assessed as growth inhibition after 48 hrs by sulforhodamine B assay; details: UO-31, 48 h
# IGROV-1 [2] = assay: Cytotoxicity against human IGROV1 cells assessed as growth inhibition after 48 hrs by sulforhodamine B assay; details: IGROV-1, 48 h
# SW-620 = assay: Cytotoxicity against human SW620 cells assessed as growth inhibition after 48 hrs by sulforhodamine B assay; details: SW-620, 48 h
# SR = assay: Cytotoxicity against human SR cells assessed as growth inhibition after 48 hrs by sulforhodamine B assay; details: for CC50: read-out: LC50 (the source's name)
# HCT-116 = assay: Cytotoxicity against human HCT116 cells assessed as growth inhibition after 48 hrs by sulforhodamine B assay; details: HCT-116, 48 h
# UO-31 [3] = assay: Cytotoxicity against human UO31 cells assessed as cell growth at 0.01 uM after 48 hrs by sulforhodamine B assay relative to control; details: UO-31, 48 h, read-out: Activity
# SF-539 = assay: Cytotoxicity against human SF539 cells assessed as cell growth at 0.01 uM after 48 hrs by sulforhodamine B assay relative to control; details: SF-539, 48 h, read-out: Activity
# SK-OV-3 = assay: Cytotoxicity against human SKOV3 cells assessed as cell growth at 0.01 uM after 48 hrs by sulforhodamine B assay relative to control; details: SK-OV-3, 48 h, read-out: Activity
# SNB-19 = assay: Cytotoxicity against human SNB19 cells assessed as cell growth at 10 uM after 48 hrs by sulforhodamine B assay relative to control; details: SNB-19, 48 h, read-out: Activity
# NCI-H460 = assay: Cytotoxicity against human NCI-H460 cells assessed as cell growth at 10 uM after 48 hrs by sulforhodamine B assay relative to control; details: NCI-H460, 48 h, read-out: Activity
# IGROV-1 [4] = assay: Cytotoxicity against human IGROV1 cells assessed as cell growth at 100 uM after 48 hrs by sulforhodamine B assay relative to control; details: IGROV-1, 48 h, read-out: Activity
# RPMI-8226 [5] = assay: Cytotoxicity against human RPMI8226 cells assessed as cell growth at 10 uM after 48 hrs by sulforhodamine B assay relative to control; details: RPMI-8226, 48 h, read-out: Activity
# A498 = assay: Cytotoxicity against human A498 cells assessed as cell growth at 0.1 uM after 48 hrs by sulforhodamine B assay relative to control; details: A498, 48 h, read-out: Activity
# A549 [6] = assay: Cytotoxicity against human A549/ATCC cells assessed as cell growth at 0.01 uM after 48 hrs by sulforhodamine B assay relative to control; details: A549, 48 h, read-out: Activity
# M14 = assay: Cytotoxicity against human M14 cells assessed as cell growth at 10 uM after 48 hrs by sulforhodamine B assay relative to control; details: M14, 48 h, read-out: Activity
# HL-60(TB) = assay: Cytotoxicity against human HL-60(TB) cells assessed as cell growth at 0.1 uM after 48 hrs by sulforhodamine B assay relative to control; details: HL-60, 48 h, read-out: Activity
# Malme-3M = assay: Cytotoxicity against human MALME-3M cells assessed as cell growth at 10 uM after 48 hrs by sulforhodamine B assay relative to control; details: read-out: Activity
# HCC 2998 = assay: Cytotoxicity against human HCC2998 cells assessed as cell growth at 0.01 uM after 48 hrs by sulforhodamine B assay relative to control; details: HCC 2998, 48 h, read-out: Activity
# HOP-62 [7] = assay: Cytotoxicity against human HOP62 cells assessed as cell growth at 10 uM after 48 hrs by sulforhodamine B assay relative to control; details: HOP-62, 48 h, read-out: Activity
# NCI-H522 = assay: Cytotoxicity against human NCI-H522 cells assessed as cell growth at 1 uM after 48 hrs by sulforhodamine B assay relative to control; details: NCI-H522, 48 h, read-out: Activity
# SK-MEL-5 = assay: Cytotoxicity against human SK-MEL-5 cells assessed as cell growth at 10 uM after 48 hrs by sulforhodamine B assay relative to control; details: SK-MEL-5, 48 h, read-out: Activity
# HCT-15 = assay: Cytotoxicity against human HCT15 cells assessed as cell growth at 0.01 uM after 48 hrs by sulforhodamine B assay relative to control; details: HCT-15, 48 h, read-out: Activity
# MOLT-4 = assay: Cytotoxicity against human MOLT4 cells assessed as cell growth at 0.1 uM after 48 hrs by sulforhodamine B assay relative to control; details: MOLT-4, 48 h, read-out: Activity
# A549 [8] = assay: Cytotoxicity against human A549/ATCC cells assessed as cell growth at 0.1 uM after 48 hrs by sulforhodamine B assay relative to control; details: A549, 48 h, read-out: Activity
# RPMI-8226 [9] = assay: Cytotoxicity against human RPMI8226 cells assessed as cell growth at 1 uM after 48 hrs by sulforhodamine B assay relative to control; details: RPMI-8226, 48 h, read-out: Activity
# NCI-H226 = assay: Cytotoxicity against human NCI-H226 cells assessed as cell growth at 0.1 uM after 48 hrs by sulforhodamine B assay relative to control; details: NCI-H226, 48 h, read-out: Activity
# NCI-H322M = assay: Cytotoxicity against human NCI-H322M cells assessed as cell growth at 0.01 uM after 48 hrs by sulforhodamine B assay relative to control; details: read-out: Activity
# KM12 = assay: Cytotoxicity against human KM12 cells assessed as cell growth at 0.1 uM after 48 hrs by sulforhodamine B assay relative to control; details: KM12, 48 h, read-out: Activity
# NCI-H23 = assay: Cytotoxicity against human NCI-H23 cells assessed as cell growth at 1 uM after 48 hrs by sulforhodamine B assay relative to control; details: NCI-H23, 48 h, read-out: Activity
# HOP-62 [10] = assay: Cytotoxicity against human HOP62 cells assessed as cell growth at 1 uM after 48 hrs by sulforhodamine B assay relative to control; details: HOP-62, 48 h, read-out: Activity
# U-251 = assay: Cytotoxicity against human U251 cells assessed as cell growth at 0.1 uM after 48 hrs by sulforhodamine B assay relative to control; details: U-251, 48 h, read-out: Activity
# 786-0 = assay: Cytotoxicity against human 786-0 cells assessed as cell growth at 100 uM after 48 hrs by sulforhodamine B assay relative to control; details: 786-0, 48 h, read-out: Activity
# BT-549 = assay: Cytotoxicity against human BT549 cells assessed as cell growth at 0.01 uM after 48 hrs by sulforhodamine B assay relative to control; details: BT-549, 48 h, read-out: Activity
# T47D = assay: Cytotoxicity against human T47D cells assessed as cell growth at 100 uM after 48 hrs by sulforhodamine B assay relative to control; details: read-out: Activity
smiles,measurement,setting,value
COc1ccc(-c2cc(/C=C/C(=O)c3ccc4c(c3)OCO4)[nH]n2)cc1OC,GI50,Hs-578T,3.76 µM
same,GI50,UO-31 [1],1.5 µM
same,GI50,IGROV-1 [2],3.13 µM
same,GI50,SW-620,1.5 µM
same,GI50,SR,0.25 µM
same,GI50,HCT-116,0.36 µM
COc1ccc(C(=O)/C=C/c2cc(-c3ccc(OC)c(OC)c3)n[nH]2)cc1OC,growth at 0.01 µM,UO-31 [3],89%
same,growth at 0.01 µM,SF-539,89%
same,growth at 0.01 µM,SK-OV-3,83%
same,growth at 10 µM,SNB-19,-48%
same,growth at 10 µM,NCI-H460,-20%
same,growth at 100 µM,IGROV-1 [4],-2%
same,GI50,Hs-578T,3.76 µM
same,TGI,Hs-578T,> 100 µM
same,growth at 10 µM,RPMI-8226 [5],-30%
same,growth at 0.1 µM,A498,81%
same,GI50,UO-31 [1],1.5 µM
same,TGI,UO-31 [1],3.8 µM
same,growth at 0.01 µM,A549 [6],97%
same,growth at 10 µM,M14,-58%
same,growth at 0.1 µM,HL-60(TB),101%
same,growth at 10 µM,Malme-3M,-27%
same,growth at 0.01 µM,HCC 2998,107%
same,growth at 10 µM,HOP-62 [7],-25%
same,growth at 1 µM,NCI-H522,82%
same,growth at 10 µM,SK-MEL-5,-97%
same,growth at 0.01 µM,HCT-15,96%
same,growth at 0.1 µM,MOLT-4,101%
same,GI50,IGROV-1 [2],3.13 µM
same,TGI,IGROV-1 [2],53.8 µM
same,growth at 0.1 µM,A549 [8],93%
same,growth at 1 µM,RPMI-8226 [9],17%
same,growth at 0.1 µM,NCI-H226,88%
same,growth at 0.01 µM,NCI-H322M,104%
same,growth at 0.1 µM,KM12,100%
same,growth at 1 µM,NCI-H23,94%
same,growth at 1 µM,HOP-62 [10],73%
same,growth at 0.1 µM,U-251,89%
same,GI50,SW-620,1.5 µM
same,TGI,SW-620,5.41 µM
same,growth at 100 µM,786-0,-32%
same,growth at 0.01 µM,BT-549,84%
same,growth at 100 µM,T47D,-9%
same,GI50,HCT-116,0.369 µM
same,TGI,HCT-116,1.71 µM
COc1cc(-c2cc(/C=C/C(=O)c3ccc4c(c3)OCO4)[nH]n2)cc(OC)c1OC,growth at 0.01 µM,UO-31 [3],86%
same,growth at 0.01 µM,SF-539,98%
same,growth at 0.01 µM,SK-OV-3,103%
same,growth at 10 µM,SNB-19,30%
same,growth at 10 µM,NCI-H460,-38%
same,growth at 100 µM,IGROV-1 [4],-8%
same,LC50,Hs-578T,> 100 µM
same,TGI,Hs-578T,78.7 µM
same,growth at 10 µM,RPMI-8226 [5],-41%
same,growth at 0.1 µM,A498,79%
same,LC50,UO-31 [1],26.3 µM
same,TGI,UO-31 [1],5.44 µM
same,growth at 0.01 µM,A549 [6],101%
same,growth at 10 µM,M14,15%
same,growth at 0.1 µM,HL-60(TB),95%
same,growth at 10 µM,Malme-3M,26%
same,growth at 0.01 µM,HCC 2998,104%
same,growth at 10 µM,HOP-62 [7],-38%
same,growth at 1 µM,NCI-H522,52%
same,growth at 10 µM,SK-MEL-5,26%
same,growth at 0.01 µM,HCT-15,95%
same,growth at 0.1 µM,MOLT-4,103%
same,LC50,IGROV-1 [2],> 100 µM
same,TGI,IGROV-1 [2],62.1 µM
same,growth at 0.1 µM,A549 [8],98%
same,growth at 1 µM,RPMI-8226 [9],36%
same,growth at 0.1 µM,NCI-H226,98%
same,growth at 0.01 µM,NCI-H322M,94%
same,growth at 0.1 µM,KM12,95%
same,growth at 1 µM,NCI-H23,97%
same,growth at 1 µM,HOP-62 [10],95%
same,growth at 0.1 µM,U-251,95%
same,"LC50 (lethal concentration, 50% net cell kill)",SW-620,> 100 µM
same,growth at 100 µM,786-0,-30%
same,TGI,SR,> 100 µM
same,CC50,SR,> 100 µM
same,growth at 0.01 µM,BT-549,94%
same,growth at 100 µM,T47D,-19%
COc1cc(-c2cc(/C=C/C(=O)c3ccc(N)cc3)[nH]n2)cc(OC)c1OC,growth at 0.01 µM,UO-31 [3],91%
same,growth at 0.01 µM,SF-539,92%
same,growth at 0.01 µM,SK-OV-3,82%
same,growth at 10 µM,NCI-H460,-32%
same,growth at 100 µM,IGROV-1 [4],-49%
same,GI50,Hs-578T,4.33 µM
same,LC50,Hs-578T,> 100 µM
same,TGI,Hs-578T,> 100 µM
same,growth at 10 µM,RPMI-8226 [5],-35%
same,growth at 0.1 µM,A498,85%
same,GI50,UO-31 [1],1.36 µM
same,LC50,UO-31 [1],6 µM
same,TGI,UO-31 [1],2.86 µM
same,growth at 0.01 µM,A549 [6],96%
same,growth at 10 µM,M14,-64%
same,growth at 0.1 µM,HL-60(TB),99%
same,growth at 10 µM,Malme-3M,-45%
same,growth at 0.01 µM,HCC 2998,108%
same,growth at 10 µM,HOP-62 [7],-59%
same,growth at 1 µM,NCI-H522,77%
same,growth at 10 µM,SK-MEL-5,-95%
same,growth at 0.01 µM,HCT-15,92%
same,growth at 0.1 µM,MOLT-4,102%
same,GI50,IGROV-1 [2],3.2 µM
same,LC50,IGROV-1 [2],> 100 µM
same,TGI,IGROV-1 [2],10.5 µM
same,growth at 0.1 µM,A549 [8],94%
same,growth at 1 µM,RPMI-8226 [9],28%
same,growth at 0.1 µM,NCI-H226,98%
same,growth at 0.01 µM,NCI-H322M,95%
same,growth at 0.1 µM,KM12,98%
same,growth at 1 µM,NCI-H23,95%
same,growth at 1 µM,HOP-62 [10],86%
same,growth at 0.1 µM,U-251,94%
same,GI50,SW-620,2.05 µM
same,"LC50 (lethal concentration, 50% net cell kill)",SW-620,> 100 µM
same,TGI,SW-620,6.37 µM
same,growth at 100 µM,786-0,-90%
same,GI50,SR,0.32 µM
same,TGI,SR,2.75 µM
same,CC50,SR,> 100 µM
same,growth at 0.01 µM,BT-549,85%
same,growth at 100 µM,T47D,-47%
same,GI50,HCT-116,1.1 µM
same,LC50,HCT-116,6.19 µM
same,TGI,HCT-116,2.61 µM
